From patent EP4596574A1, “GLP-1/GCG/GIP TRIPLE-RECEPTOR AGONIST AND USE THEREOF” (Sunshine Lake Pharma Co., Ltd., priority 2022, dated 2024)
Starred links: 1 amine or outer side, 2 acyl side, 3 side chain; linkers in the order of their positions; H or OH if unused. Non-standard residues stand in square brackets, D forms with d. Residues, ends and D or L forms follow the SMILES beside them. Groups on a side chain read outwards from the residue. *: point of attachment. C18 diacid = O=C(O)CCCCCCCCCCCCCCCCC(=O)*; αMePhe(2-F) = C[C@](N)(Cc1ccccc1F)C(=O)O; γGlu = O=C(O)[C@H](CCC(=O)[*:2])N[*:1]; AEEA = NCCOCCOCC(=O)O; Aib = CC(C)(N)C(=O)O

How the values were obtained:
Format in all cases: cell-based
GCGR = molecular target: T1, GCGR (Homo sapiens, UniProt P47871); assay: In vitro cell activity, cAMP production in HEK293 cells expressing GCGR; conditions: HEK293-GCGR cells, cAMP; read-out: GCGR (EC50)
T1 construct: expressed in transfected cells; host or cells: HEK293 (HEK293-GCGR)
T1 sequence (P47871 26-477, species assumed): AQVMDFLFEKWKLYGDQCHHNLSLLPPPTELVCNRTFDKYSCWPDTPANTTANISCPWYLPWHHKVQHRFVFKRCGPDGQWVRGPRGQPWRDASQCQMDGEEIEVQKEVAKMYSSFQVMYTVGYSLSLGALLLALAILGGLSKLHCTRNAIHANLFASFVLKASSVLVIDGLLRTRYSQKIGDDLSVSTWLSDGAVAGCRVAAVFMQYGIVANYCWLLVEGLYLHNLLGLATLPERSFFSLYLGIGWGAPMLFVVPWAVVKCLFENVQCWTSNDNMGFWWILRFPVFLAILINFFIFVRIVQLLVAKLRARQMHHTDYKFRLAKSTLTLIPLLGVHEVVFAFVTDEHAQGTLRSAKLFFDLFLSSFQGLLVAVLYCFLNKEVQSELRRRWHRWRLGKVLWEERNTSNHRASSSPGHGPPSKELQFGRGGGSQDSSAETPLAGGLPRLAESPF
Procedure: (§1) After they were completely thawed within 1.5 minutes, the cells were added dropwise into a 15 mL centrifuge tube containing 8 mL of warm culture medium in a clean bench. The tubes were centrifuged at 900 rpm for 5 minutes, the supernatant was discarded, and the cells were resuspended in 1 mL of complete culture medium (by pipetting 15 times). 20 µL of the suspension was immediately taken and mixed with an equal volume of trypan blue. 20 µL was taken to count the number of live cells, and the cells were diluted to 4×10^5 cells/mL with complete culture medium. • 4) The 384-well plate was divided into GLP-1R cell, GCGR cell and GIPR cell areas. The cell suspension was added to the wells of the corresponding area at 5 µL per well using a 12-channel variable-channel adjustable dispenser. […] Then, the diluted cAMP-d2 working solution and anti-cAMP-crytate working solution were mixed evenly in a ratio of 1:1, and 10 µL was added to each well of the sample group. The wells were covered with white lids and placed at room temperature in the dark for 1 hour or at 4 °C overnight. • 6) The fluorescence values at 665 nm and 620 nm were detected in a multifunctional microplate reader. In GraphPad Prism 6, the signal ratio and sample concentration were nonlinearly fitted using a four-parameter equation to obtain the EC50 value.

GIPR = molecular target: T2, GIPR (Homo sapiens, UniProt P48546); assay: In vitro cell activity, cAMP production in HEK293 cells expressing GIPR; conditions: HEK293-GIPR cells, cAMP; read-out: GIPR (EC50)
T2 construct: expressed in transfected cells; host or cells: HEK293 (HEK293-GIPR)
T2 sequence (P48546 22-466): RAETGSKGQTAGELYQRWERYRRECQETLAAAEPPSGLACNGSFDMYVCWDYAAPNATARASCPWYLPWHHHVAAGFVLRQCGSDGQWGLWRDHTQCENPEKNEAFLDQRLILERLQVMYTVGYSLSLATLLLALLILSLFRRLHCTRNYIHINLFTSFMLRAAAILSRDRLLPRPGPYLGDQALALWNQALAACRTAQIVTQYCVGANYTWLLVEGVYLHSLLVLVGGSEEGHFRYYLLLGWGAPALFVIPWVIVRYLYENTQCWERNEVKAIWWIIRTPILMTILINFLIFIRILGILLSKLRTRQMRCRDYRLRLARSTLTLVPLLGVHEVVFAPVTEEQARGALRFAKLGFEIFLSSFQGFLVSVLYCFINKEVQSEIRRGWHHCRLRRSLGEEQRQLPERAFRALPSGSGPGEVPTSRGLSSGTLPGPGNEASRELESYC
Procedure: as §1, with “The wells were covered with white lids and placed at room temperature in the dark for 1 hour or at 4 °C overnight. • 6) The fluorescence values at 665 nm and 620 nm were detected in a multifunctional microplate reader.” left out

GLP-1R = molecular target: T3, GLP-1R (Homo sapiens, UniProt P43220); assay: In vitro cell activity, cAMP production in HEK293 cells expressing GLP-1R; conditions: HEK293-GLP-1R cells, cAMP; read-out: GLP-1R (EC50)
T3 construct: expressed in transfected cells; host or cells: HEK293 (HEK293-GLP-1R)
T3 sequence (P43220 24-463, species assumed): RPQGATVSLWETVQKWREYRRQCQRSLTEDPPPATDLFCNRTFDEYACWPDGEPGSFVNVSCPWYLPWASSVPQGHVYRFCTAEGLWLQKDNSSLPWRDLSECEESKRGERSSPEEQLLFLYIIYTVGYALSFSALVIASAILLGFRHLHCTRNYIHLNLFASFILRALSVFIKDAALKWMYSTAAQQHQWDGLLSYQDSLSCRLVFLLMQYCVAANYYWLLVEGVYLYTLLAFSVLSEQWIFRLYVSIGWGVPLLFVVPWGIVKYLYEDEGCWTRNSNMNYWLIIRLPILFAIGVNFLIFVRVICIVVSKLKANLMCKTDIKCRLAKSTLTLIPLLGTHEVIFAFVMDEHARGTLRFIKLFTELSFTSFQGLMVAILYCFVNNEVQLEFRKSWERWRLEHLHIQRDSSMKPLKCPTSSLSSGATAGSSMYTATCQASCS
Procedure: as §1

SMILES	EC50 (GCGR) [pM]	EC50 (GIPR) [pM]	EC50 (GLP-1R) [pM]
CC[C@H](C)[C@H](NC(=O)[C@H](CCCNC(=N)N)NC(=O)[C@H](CC(=O)O)NC(=O)[C@H](CCCCNC(=O)COCCOCCNC(=O)CC[C@H](NC(=O)CCCCCCCCCCCCCCCCC(=O)O)C(=O)O)NC(=O)[C@H](CC(C)C)NC(=O)[C@@H](NC(=O)[C@H](CO)NC(=O)[C@H](Cc1ccc(O)cc1)NC(=O)[C@H](CC(=O)O)NC(=O)[C@H](CO)NC(=O)[C@@H](NC(=O)[C@](C)(Cc1ccccc1F)NC(=O)[C@@H](NC(=O)CNC(=O)[C@H](CCC(N)=O)NC(=O)C(C)(C)NC(=O)[C@@H](N)Cc1ccc(O)cc1)[C@@H](C)O)[C@@H](C)O)[C@@H](C)CC)C(=O)N[C@@H](C)C(=O)N[C@@H](CCC(N)=O)C(=O)N[C@@H](CCCNC(=N)N)C(=O)N[C@@H](C)C(=O)N[C@@H](Cc1ccccc1)C(=O)N[C@H](C(=O)N[C@@H](CCC(=O)O)C(=O)N[C@@H](Cc1ccc(O)cc1)C(=O)N[C@@H](CC(C)C)C(=O)N[C@@H](CC(C)C)C(=O)N[C@@H](CCC(=O)O)C(=O)NCC(=O)NCC(=O)N1CCC[C@H]1C(=O)N[C@@H](CO)C(=O)N[C@@H](CO)C(=O)NCC(=O)N[C@@H](C)C(=O)N1CCC[C@H]1C(=O)N1CCC[C@H]1C(=O)N1CCC[C@H]1C(=O)N[C@@H](CO)C(=O)O)[C@@H](C)CC [HEC-PT142] (H-Y[Aib]QGT[αMePhe(2-F)]TSDYSILK([AEEA-γGlu-C18 diacid])DRIAQRAFIEYLLEGGPSSGAPPPS-OH)	113	142	160
CC[C@H](C)[C@H](NC(=O)[C@H](Cc1ccccc1)NC(=O)[C@H](C)NC(=O)[C@H](CCC(N)=O)NC(=O)[C@H](CCC(N)=O)NC(=O)[C@H](CCCNC(=N)N)NC(=O)[C@@H](NC(=O)[C@H](CCCCN)NC(=O)[C@H](CC(=O)O)NC(=O)[C@H](CCCCNC(=O)COCCOCCNC(=O)CC[C@H](NC(=O)CCCCCCCCCCCCCCCCC(=O)O)C(=O)O)NC(=O)[C@H](CC(C)C)NC(=O)[C@@H](NC(=O)[C@H](CO)NC(=O)[C@H](Cc1ccc(O)cc1)NC(=O)[C@H](CC(=O)O)NC(=O)[C@H](CO)NC(=O)[C@@H](NC(=O)[C@](C)(Cc1ccccc1F)NC(=O)[C@@H](NC(=O)CNC(=O)[C@H](CCC(N)=O)NC(=O)C(C)(C)NC(=O)[C@@H](N)Cc1ccc(O)cc1)[C@@H](C)O)[C@@H](C)O)[C@@H](C)CC)[C@@H](C)CC)C(=O)N[C@@H](CCC(=O)O)C(=O)N[C@@H](Cc1ccc(O)cc1)C(=O)N[C@@H](CC(C)C)C(=O)N[C@@H](CC(C)C)C(=O)N[C@@H](CCC(=O)O)C(=O)NCC(=O)NCC(=O)N1CCC[C@H]1C(=O)N[C@@H](CO)C(=O)N[C@@H](CO)C(=O)NCC(=O)N[C@@H](C)C(=O)N1CCC[C@H]1C(=O)N1CCC[C@H]1C(=O)N1CCC[C@H]1C(=O)N[C@@H](CO)C(N)=O [HEC-PT143] (H-Y[Aib]QGT[αMePhe(2-F)]TSDYSILK([AEEA-γGlu-C18 diacid])DKIRQQAFIEYLLEGGPSSGAPPPS-NH2)	173	63	140
CC[C@H](C)[C@H](NC(=O)[C@H](Cc1ccccc1)NC(=O)[C@H](C)NC(=O)[C@H](CCCNC(=N)N)NC(=O)[C@H](CCC(N)=O)NC(=O)[C@H](C)NC(=O)[C@H](CCCCNC(=O)COCCOCCNC(=O)CC[C@H](NC(=O)CCCCCCCCCCCCCCCCCCC(=O)O)C(=O)O)NC(=O)[C@H](CCC(=O)O)NC(=O)[C@H](CC(=O)O)NC(=O)[C@H](CC(C)C)NC(=O)[C@H](CC(C)C)NC(=O)[C@@H](NC(=O)[C@H](CO)NC(=O)[C@H](Cc1ccc(O)cc1)NC(=O)[C@H](CC(=O)O)NC(=O)[C@H](CO)NC(=O)[C@@H](NC(=O)[C@](C)(Cc1ccccc1F)NC(=O)[C@@H](NC(=O)CNC(=O)[C@H](Cc1c[nH]cn1)NC(=O)C(C)(C)NC(=O)[C@@H](N)Cc1ccc(O)cc1)[C@@H](C)O)[C@@H](C)O)[C@@H](C)CC)C(=O)N[C@@H](CCC(=O)O)C(=O)N[C@@H](Cc1ccc(O)cc1)C(=O)N[C@@H](CC(C)C)C(=O)N[C@@H](CC(C)C)C(=O)N[C@@H](CCC(=O)O)C(=O)NCC(=O)NCC(=O)N1CCC[C@H]1C(=O)N[C@@H](CO)C(=O)N[C@@H](CO)C(=O)NCC(=O)N[C@@H](C)C(=O)N1CCC[C@H]1C(=O)N1CCC[C@H]1C(=O)N1CCC[C@H]1C(=O)N[C@@H](CO)C(=O)O [HEC-PT84]	306	232	291
CC[C@H](C)[C@H](NC(=O)[C@H](Cc1ccccc1)NC(=O)[C@H](C)NC(=O)[C@H](CCCNC(=N)N)NC(=O)[C@H](CCC(N)=O)NC(=O)[C@H](C)NC(=O)[C@H](CCCCNC(=O)COCCOCCNC(=O)CC[C@H](NC(=O)CCCCCCCCCCCCCCCCCCC(=O)O)C(=O)O)NC(=O)[C@H](CCC(=O)O)NC(=O)[C@H](CC(=O)O)NC(=O)[C@H](CC(C)C)NC(=O)[C@H](CC(C)C)NC(=O)[C@@H](NC(=O)[C@H](CO)NC(=O)[C@H](Cc1ccc(O)cc1)NC(=O)[C@H](CC(=O)O)NC(=O)[C@H](CO)NC(=O)[C@@H](NC(=O)[C@](C)(Cc1ccccc1F)NC(=O)[C@@H](NC(=O)CNC(=O)[C@H](CCC(N)=O)NC(=O)C(C)(C)NC(=O)[C@@H](N)Cc1ccc(O)cc1)[C@@H](C)O)[C@@H](C)O)[C@@H](C)CC)C(=O)N[C@@H](CCC(=O)O)C(=O)N[C@@H](Cc1ccc(O)cc1)C(=O)N[C@@H](CC(C)C)C(=O)N[C@@H](CC(C)C)C(=O)N[C@@H](C)C(=O)NCC(=O)NCC(=O)N1CCC[C@H]1C(=O)N[C@@H](CO)C(=O)N[C@@H](CO)C(=O)NCC(=O)N[C@@H](C)C(=O)N1CCC[C@H]1C(=O)N1CCC[C@H]1C(=O)N1CCC[C@H]1C(=O)N[C@@H](CO)C(=O)O [HEC-PT95]	682	237	156
CC[C@H](C)[C@H](NC(=O)[C@H](Cc1ccccc1)NC(=O)[C@H](C)NC(=O)[C@H](CCCCN)NC(=O)[C@H](CCC(N)=O)NC(=O)[C@H](CCCCN)NC(=O)[C@H](CCCCNC(=O)COCCOCCNC(=O)CC[C@H](NC(=O)CCCCCCCCCCCCCCCCCCC(=O)O)C(=O)O)NC(=O)[C@H](CCC(=O)O)NC(=O)[C@H](CC(=O)O)NC(=O)[C@H](CC(C)C)NC(=O)[C@H](CC(C)C)NC(=O)[C@@H](NC(=O)[C@H](CO)NC(=O)[C@H](Cc1ccc(O)cc1)NC(=O)[C@H](CC(=O)O)NC(=O)[C@H](CO)NC(=O)[C@@H](NC(=O)[C@](C)(Cc1ccccc1F)NC(=O)[C@@H](NC(=O)CNC(=O)[C@H](CCC(N)=O)NC(=O)C(C)(C)NC(=O)[C@@H](N)Cc1ccc(O)cc1)[C@@H](C)O)[C@@H](C)O)[C@@H](C)CC)C(=O)N[C@@H](CCC(=O)O)C(=O)N[C@@H](Cc1ccc(O)cc1)C(=O)N[C@@H](CC(C)C)C(=O)N[C@@H](CC(C)C)C(=O)N[C@@H](C)C(=O)NCC(=O)NCC(=O)N1CCC[C@H]1C(=O)N[C@@H](CO)C(=O)N[C@@H](CO)C(=O)NCC(=O)N[C@@H](C)C(=O)N1CCC[C@H]1C(=O)N1CCC[C@H]1C(=O)N1CCC[C@H]1C(=O)N[C@@H](CO)C(N)=O [HEC-PT131]	8070	1130	249
